# Laboratory results from PubChem BioAssay (NCI).
#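 Protocol summary: plate cells (96-well), add compound at 5 concentrations, incubate 48 h, interpolate endpoints linearly. TGI denotes the concentration required for complete inhibition of growth.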
# Columns and labels:
# Assay in all cases: NCI tumour cell line growth inhibition, 48 h
# 786-0 renal = tested on: 786-0 renal
# A498 renal = tested on: A498 renal
# A549 NSCLC = tested on: A549 NSCLC
# ACHN renal = tested on: ACHN renal
# BT-549 breast = tested on: BT-549 breast
# CAKI-1 renal = tested on: CAKI-1 renal
# CCRF-CEM leukemia = tested on: CCRF-CEM leukemia
# DU-145 prostate = tested on: DU-145 prostate
# EKVX NSCLC = tested on: EKVX NSCLC
# HCC-2998 colon = tested on: HCC-2998 colon
# HCT-116 colon = tested on: HCT-116 colon
# HCT-15 colon = tested on: HCT-15 colon
# HOP-62 NSCLC = tested on: HOP-62 NSCLC
# HS 578T breast = tested on: HS 578T breast
# HT29 colon = tested on: HT29 colon
# IGROV1 ovarian = tested on: IGROV1 ovarian
# K-562 leukemia = tested on: K-562 leukemia
# KM12 colon = tested on: KM12 colon
# LOX IMVI melanoma = tested on: LOX IMVI melanoma
# M14 melanoma = tested on: M14 melanoma
# MCF7 breast = tested on: MCF7 breast
# MDA-MB-231 breast = tested on: MDA-MB-231 breast
# MDA-MB-435 = tested on: MDA-MB-435
# MDA-N = tested on: MDA-N
# MOLT-4 leukemia = tested on: MOLT-4 leukemia
# NCI-H226 lung = tested on: NCI-H226 lung
# NCI-H23 lung = tested on: NCI-H23 lung
# NCI-H460 lung = tested on: NCI-H460 lung
# NCI-H522 lung = tested on: NCI-H522 lung
# NCI/ADR-RES ovarian = tested on: NCI/ADR-RES ovarian
# OVCAR-3 ovarian = tested on: OVCAR-3 ovarian
# OVCAR-5 ovarian = tested on: OVCAR-5 ovarian
# OVCAR-8 ovarian = tested on: OVCAR-8 ovarian
# PC-3 prostate = tested on: PC-3 prostate
# RPMI-8226 leukemia = tested on: RPMI-8226 leukemia
# RXF 393 renal = tested on: RXF 393 renal
# SF-268 CNS = tested on: SF-268 CNS
# SF-295 CNS = tested on: SF-295 CNS
# SF-539 CNS = tested on: SF-539 CNS
# SK-MEL-2 melanoma = tested on: SK-MEL-2 melanoma
# SK-MEL-28 melanoma = tested on: SK-MEL-28 melanoma
# SK-MEL-5 melanoma = tested on: SK-MEL-5 melanoma
# SK-OV-3 ovarian = tested on: SK-OV-3 ovarian
# SN12C renal = tested on: SN12C renal
# SNB-19 CNS = tested on: SNB-19 CNS
# SNB-75 CNS = tested on: SNB-75 CNS
# SR leukemia = tested on: SR leukemia
# SW-620 colon = tested on: SW-620 colon
# T-47D breast = tested on: T-47D breast
# TK-10 renal = tested on: TK-10 renal
# U251 CNS = tested on: U251 CNS
# UACC-257 melanoma = tested on: UACC-257 melanoma
# UACC-62 melanoma = tested on: UACC-62 melanoma
# UO-31 renal = tested on: UO-31 renal
structure (smiles),measurement,setting,value
C#Cc1nc(N)c2ncn(C3OC(COS(N)(=O)=O)C(O)C3O)c2n1 (centres undefined),TGI,786-0 renal,0.797 µM
same,TGI,A498 renal,< 0.0302 µM
same,TGI,A549 NSCLC,1.56 µM
same,TGI,ACHN renal,0.0743 µM
same,TGI,BT-549 breast,0.349 µM
same,TGI,CAKI-1 renal,0.225 µM
same,TGI,CCRF-CEM leukemia,< 0.0258 µM
same,TGI,DU-145 prostate,0.0997 µM
same,TGI,EKVX NSCLC,1.29 µM
same,TGI,HCC-2998 colon,0.191 µM
same,TGI,HCT-116 colon,0.288 µM
same,TGI,HCT-15 colon,0.429 µM
same,TGI,HOP-62 NSCLC,1.97 µM
same,TGI,HS 578T breast,0.736 µM
same,TGI,HT29 colon,0.481 µM
same,TGI,IGROV1 ovarian,0.114 µM
same,TGI,K-562 leukemia,> 100 µM
same,TGI,KM12 colon,0.352 µM
same,TGI,LOX IMVI melanoma,< 0.0325 µM
same,TGI,M14 melanoma,0.457 µM
same,TGI,MCF7 breast,> 100 µM
same,TGI,MDA-MB-231 breast,< 0.0476 µM
same,TGI,MDA-MB-435,0.0717 µM
same,TGI,MDA-N,< 0.0299 µM
same,TGI,MOLT-4 leukemia,< 0.0258 µM
same,TGI,NCI-H226 lung,0.0491 µM
same,TGI,NCI-H23 lung,0.136 µM
same,TGI,NCI-H460 lung,0.634 µM
same,TGI,NCI-H522 lung,< 0.01 µM
same,TGI,NCI/ADR-RES ovarian,< 0.0291 µM
same,TGI,OVCAR-3 ovarian,0.0901 µM
same,TGI,OVCAR-5 ovarian,0.122 µM
same,TGI,OVCAR-8 ovarian,0.194 µM
same,TGI,PC-3 prostate,0.213 µM
same,TGI,RPMI-8226 leukemia,0.11 µM
same,TGI,RXF 393 renal,0.0866 µM
same,TGI,SF-268 CNS,0.688 µM
same,TGI,SF-295 CNS,3.17 µM
same,TGI,SF-539 CNS,0.198 µM
same,TGI,SK-MEL-2 melanoma,0.0196 µM
same,TGI,SK-MEL-28 melanoma,0.298 µM
same,TGI,SK-MEL-5 melanoma,0.344 µM
same,TGI,SK-OV-3 ovarian,< 0.01 µM
same,TGI,SN12C renal,0.256 µM
same,TGI,SNB-19 CNS,0.266 µM
same,TGI,SNB-75 CNS,0.349 µM
same,TGI,SR leukemia,< 0.0172 µM
same,TGI,SW-620 colon,0.665 µM
same,TGI,T-47D breast,< 0.01 µM
same,TGI,TK-10 renal,0.327 µM
same,TGI,U251 CNS,0.449 µM
same,TGI,UACC-257 melanoma,0.339 µM
same,TGI,UACC-62 melanoma,0.369 µM
same,TGI,UO-31 renal,0.15 µM
